Active and inactive are the calls of the source. The calls are words filed in the database; no cut-off is given here.

A word on the IC50: it is the midpoint of a concentration-inhibition curve. The low end stands for greater potency in that assay, the high end for weaker potency in that assay. Usually MIC stands for the least concentration at which growth counts as inhibited. Higher therefore signals a less susceptible organism.

The test system of one series is A2780. Briefly: Antiproliferative activity against human A2780 cells at 40 uM after 72 hrs by Cyquant assay. In kind it is functional, cell-based.
Series [1] in a line: Inhibition of TNFalpha-induced NFkappaB activation in human HEK293 cells after 6 hrs by luciferase assay. It is filed as cell-based. The following applies: HEK293, 6 h.
A further series relates to HEK293. Briefly: Cytotoxicity against HEK293 cells at 50 uM by SRB assay. In kind it is cell-based. The following applies: human, hek293, 50 µM. (Sulforhodamine B stains cellular protein and so reports cell mass.)
The subject of series [2] is Staphylococcus aureus. In words: Antibacterial activity against Staphylococcus aureus ATCC 43300 after 24 hrs by resazurin dye based broth microdilution method. In kind it is functional. The following applies: ATCC 43300, 24 h.
Series [3] deals with Escherichia coli. In words: Antibacterial activity against Escherichia coli ATCC 9637 after 24 hrs by resazurin dye based broth microdilution method. It is filed as functional. The following applies: W ATCC 9637, 24 h. (In general: Alamar Blue is a resazurin reagent that responds to reducing activity.)
In series [4] the test system is Staphylococcus aureus. In words: Antibacterial activity against Staphylococcus aureus ATCC 43300 at 50 ug/ml after 24 hrs by resazurin dye based broth microdilution method. It is filed as functional, organism-based.
Series [5] has as its system Escherichia coli. In words: Antibacterial activity against Escherichia coli ATCC 9637 at 50 ug/ml after 24 hrs by resazurin dye based broth microdilution method. It is filed as functional, organism-based. Conditions: W ATCC 9637.

Take `CC(=O)O[C@H]1C[C@@]2(C)[C@@H](CC[C@H]3[C@@]4(C)CCC(=O)[C@@H](C)[C@@H]4[C@H](OC(C)=O)C(=O)[C@@]32C)/C1=C(\CCC=C(C)C)C(=O)O`: the result with A2780 was inactive. Moreover, the IC50 in series [1] stood at 6.5 µM. In addition, in the series on HEK293, the Activity result is on record as “Non-Toxic”. Further, the results for the MIC against Staphylococcus aureus [2] and in the series with Escherichia coli [3] were 50 µg/mL and 25 µg/mL, respectively.
In turn, `Cc1ccc(S(=O)(=O)/C=C/C#N)cc1` registered an IC50 in series [1] of 11 µM. In other words, the double-digit micromolar range.
On to `O=C(N[C@H](CO)[C@H](O)c1ccc([N+](=O)[O-])cc1)C(Cl)Cl` [CHLORAMPHENICOL], for which the MIC in the series on Staphylococcus aureus [2] was determined as 19.4 µM; in the series with Escherichia coli [3] it was 9.66 µM.
With `CO[C@@H]1[C@H](OC(=O)/C=C/C=C/C=C/C=C/C(=O)O)CC[C@]2(CO2)[C@H]1[C@@]1(C)O[C@@H]1CC=C(C)C` [FUMAGILLIN], the outcome in the series with A2780, with Staphylococcus aureus [4] and in the series with Escherichia coli [5] was inactive. For the same compound, the Activity result in the series with HEK293 is given as “Non-Toxic”.
For `Cc1ccc(S(=O)(=O)N[C@@H](Cc2ccccc2)C(=O)CCl)cc1` [TPCK], in series [1], the midpoint of inhibition, the IC50, lay at 5.3 µM. In other words, the single-digit micromolar range.
In the case of `CC(=O)O[C@H]1C[C@@]2(C)[C@@H](CC[C@H]3[C@@]4(C)CCC(=O)[C@@H](C)[C@@H]4[C@H](O)C(=O)[C@@]32C)/C1=C(\CCC=C(C)C)C(=O)O`, the outcome in the series with A2780 was inactive. In the series with HEK293, the Activity result is on record as “Non-Toxic”. Besides, the MIC was 12.5 µg/mL with Staphylococcus aureus [2] and 25 µg/mL in the series on Escherichia coli [3].
For the compound `CO[C@@H]1[C@H](OC(=O)/C=C/C=C/C=C/C(=O)O)CC[C@]2(O)CO[C@](C)([C@H](O)CC=C(C)C)[C@@H]12`, the outcome in the series with A2780, with Staphylococcus aureus [4] and with Escherichia coli [5] was inactive. Also, in the series on HEK293, the Activity entry is “Non-Toxic”.
For the compound `CC(=O)O[C@H]1C[C@@]2(C)[C@@H](CC[C@H]3[C@@]4(C)CCC(=O)[C@@H](C)[C@@H]4CC[C@@]32C)/C1=C(\CCC=C(C)C)C(=O)O`, in the series with A2780, the outcome was inactive. Besides, the Activity result in the series with HEK293 was “Non-Toxic”. Further, the results for the MIC in the series with Staphylococcus aureus [2] and with Escherichia coli [3] were 6.25 µg/mL and 25 µg/mL, respectively.
As to `CC(=O)O[C@H]1C[C@@]2(C)[C@@H](CC[C@H]3[C@@]4(C)C=CC(=O)[C@@H](C)[C@@H]4[C@H](OC(C)=O)C(=O)[C@@]32C)/C1=C(\CCC=C(C)C)C(=O)O` [HELVOLIC ACID], the result in the series with A2780 was inactive. In series [1], this compound gave an IC50 of 2.7 µM. Besides, the Activity entry with HEK293 is reported as “Non-Toxic”. Further, the MIC in the series with Staphylococcus aureus [2] was found to be 12.5 µg/mL; in the series on Escherichia coli [3], 3.12 µg/mL.
As to `CC(=O)O[C@H]1C[C@@]2(C)[C@@H](CC[C@H]3[C@@]4(C)CCC(=O)[C@@H](C)[C@@H]4C[C@@H](O)[C@@]32C)/C1=C(\CCC=C(C)C)C(=O)O`, the result in the series on A2780 was inactive. Further, in the series with HEK293, the Activity entry was “Non-Toxic”. For the same compound, the MIC worked out at 6.25 µg/mL against Staphylococcus aureus [2] and 25 µg/mL with Escherichia coli [3].

The record behind these values is ChEMBL document CHEMBL4613260, “NF-κB Inhibitory and Antibacterial Helvolic and Fumagillin Derivatives from Aspergillus terreus” (J Nat Prod, 2020).
